How the values were obtained:
[1] = tested on: thermostable luciferase (Luc 146-1H2); experiment: Light emission of thermostable luciferase with luciferin derivatives; format: biochemical
Procedure: This stock was used to produce enzyme stock solution having of 200 μg/ml enzyme solution in 1 mg/ml BSA, 200 mM HEPES buffer, pH 8.0, 20 mM MgCl2.
Solutions were made using a 1 M DTT solution, pH adjusted to 8.0, a 20 mM Coenzyme A solution in water (both described in examples above), a 100 mM ATP solution and water to create the following solutions: Sol′ A, 100 μM ATP; Sol′B, 100 μM ATP, 4 mM Coenzyme A; Sol′n C, 100 μM ATP, 400 mM DTT, and; Sol′n D, 100 μM ATP, 4 mM Coenzyme A and 400 mM DTT.
(§1) After assembly, the reactions were initiated by addition of 25 μl of the thermostable luciferase stock solution above and mixing the tube contents. A 50 μl sample was immediately removed and placed in a luminometer tube and the light read and the tube then replaced in a tube rack at room temperature. While the light reading was being taken, a 5 μl sample of the remaining reaction (which was kept at room temperature) was diluted into 495 μl of 50 mM BisTris, pH 6.5, 1 mg/ml BSA, 1 mM EDTA prechilled to 4° C. and the tube mixed and placed on ice. The light produced by the samples in the luminometer tubes were re-read at 20, 40, 60, 90 and 120 minutes post enzyme addition. Additional 5 μl samples were taken and diluted as above at 60 and 120 minutes post enzyme addition. Once all these readings and samples were taken, 50 μl of the diluted samples was mixed with 50 μl of Steady Glo in luminometer tubes, the tubes incubated 10 minutes […] then the light produced was read on a Turner TD 20/20 luminometer.

[2] = tested on: thermostable luciferase (Luc 146-1H2); experiment: Residual active thermostable luciferase after reaction with derivative (Steady Glo); format: biochemical
Procedure: as §1

In the case of O=C(O)[C@H]1CSC(c2nc3ccc(OCCCl)cc3s2)=N1 [L’in-CEE], the “light reading of reaction sample” value ([1]; substrate 6.25, +Co A & DTT, 0 min) is reported as 77.35, the “light reading of reaction sample” value ([1]; substrate 6.25, +Co A & DTT, 20 min) is reported as 7.958 and the “light reading of reaction sample” value ([1]; substrate 6.25, +Co A & DTT, 40 min) is reported as 3.656. The “light reading of reaction sample” value ([1]; substrate 6.25, +Co A & DTT, 60 min) was 2.312, the “light reading of reaction sample” value ([1]; substrate 6.25, +Co A & DTT, 90 min) was 1.414 and the “light reading of reaction sample” value ([1]; substrate 6.25, +Co A & DTT, 120 min) was 1.134. The “light reading of reaction sample” value ([1]; substrate 6.25, +Co A, 0 min) was 1829, the “light reading of reaction sample” value ([1]; substrate 6.25, +Co A, 20 min) was 114 and the “light reading of reaction sample” value ([1]; substrate 6.25, +Co A, 40 min) was 57.82. The “light reading of reaction sample” value ([1]; substrate 6.25, +Co A, 60 min) was 37.53, the “light reading of reaction sample” value ([1]; substrate 6.25, +Co A, 90 min) was 24.66 and the “light reading of reaction sample” value ([1]; substrate 6.25, +Co A, 120 min) was 17.02. For the same compound, the “light reading of reaction sample” value ([1]; substrate 6.25, +DTT, 0 min) was 72.52, the “light reading of reaction sample” value ([1]; substrate 6.25, +DTT, 20 min) was 5.903 and the “light reading of reaction sample” value ([1]; substrate 6.25, +DTT, 40 min) was 3.073. For the same compound, the “light reading of reaction sample” value ([1]; substrate 6.25, +DTT, 60 min) was 2.089, the “light reading of reaction sample” value ([1]; substrate 6.25, +DTT, 90 min) was 1.431 and the “light reading of reaction sample” value ([1]; substrate 6.25, +DTT, 120 min) was 1.125. For the same compound, the “light reading of reaction sample” value ([1]; substrate 6.25, Alone, 0 min) was 121, the “light reading of reaction sample” value ([1]; substrate 6.25, Alone, 20 min) was 5.884 and the “light reading of reaction sample” value ([1]; substrate 6.25, Alone, 40 min) was 3.316. The “light reading of reaction sample” value ([1]; substrate 6.25, Alone, 60 min) was 2.352, the “light reading of reaction sample” value ([1]; substrate 6.25, Alone, 90 min) was 1.569 and the “light reading of reaction sample” value ([1]; substrate 6.25, Alone, 120 min) was 1.154. The “light reading of reaction sample” value ([1]; substrate 25, +Co A & DTT, 0 min) was 57.98, the “light reading of reaction sample” value ([1]; substrate 25, +Co A & DTT, 20 min) was 5.721 and the “light reading of reaction sample” value ([1]; substrate 25, +Co A & DTT, 40 min) was 3.272. For the same compound, the “light reading of reaction sample” value ([1]; substrate 25, +Co A & DTT, 60 min) was 2.192, the “light reading of reaction sample” value ([1]; substrate 25, +Co A & DTT, 90 min) was 1.379 and the “light reading of reaction sample” value ([1]; substrate 25, +Co A & DTT, 120 min) was 1.174. The “light reading of reaction sample” value ([1]; substrate 25, +Co A, 0 min) was 489.2, the “light reading of reaction sample” value ([1]; substrate 25, +Co A, 20 min) was 45.45 and the “light reading of reaction sample” value ([1]; substrate 25, +Co A, 40 min) was 25.08. For the same compound, the “light reading of reaction sample” value ([1]; substrate 25, +Co A, 60 min) was 16.96, the “light reading of reaction sample” value ([1]; substrate 25, +Co A, 90 min) was 11.03 and the “light reading of reaction sample” value ([1]; substrate 25, +Co A, 120 min) was 7.309. For the same compound, the “light reading of reaction sample” value ([1]; substrate 25, +DTT, 0 min) was 56.59, the “light reading of reaction sample” value ([1]; substrate 25, +DTT, 20 min) was 3.761 and the “light reading of reaction sample” value ([1]; substrate 25, +DTT, 40 min) was 2.196. The “light reading of reaction sample” value ([1]; substrate 25, +DTT, 60 min) was 1.668, the “light reading of reaction sample” value ([1]; substrate 25, +DTT, 90 min) was 1.274 and the “light reading of reaction sample” value ([1]; substrate 25, +DTT, 120 min) was 1.157. For the same compound, the “light reading of reaction sample” value ([1]; substrate 25, Alone, 0 min) was 59.87, the “light reading of reaction sample” value ([1]; substrate 25, Alone, 20 min) was 3.176 and the “light reading of reaction sample” value ([1]; substrate 25, Alone, 40 min) was 1.919. For the same compound, the “light reading of reaction sample” value ([1]; substrate 25, Alone, 60 min) was 1.305, the “light reading of reaction sample” value ([1]; substrate 25, Alone, 90 min) was 1.178 and the “light reading of reaction sample” value ([1]; substrate 25, Alone, 120 min) was 1.03. The “light reading of reaction sample” value ([1]; substrate 100, +Co A & DTT, 0 min) was 25.41, the “light reading of reaction sample” value ([1]; substrate 100, +Co A & DTT, 20 min) was 3.278 and the “light reading of reaction sample” value ([1]; substrate 100, +Co A & DTT, 40 min) was 2.027. For the same compound, the “light reading of reaction sample” value ([1]; substrate 100, +Co A & DTT, 60 min) was 1.666, the “light reading of reaction sample” value ([1]; substrate 100, +Co A & DTT, 90 min) was 1.27 and the “light reading of reaction sample” value ([1]; substrate 100, +Co A & DTT, 120 min) was 1.157. The “light reading of reaction sample” value ([1]; substrate 100, +Co A, 0 min) was 97.88, the “light reading of reaction sample” value ([1]; substrate 100, +Co A, 20 min) was 10.3 and the “light reading of reaction sample” value ([1]; substrate 100, +Co A, 40 min) was 7.127. The “light reading of reaction sample” value ([1]; substrate 100, +Co A, 60 min) was 5.562, the “light reading of reaction sample” value ([1]; substrate 100, +Co A, 90 min) was 3.969 and the “light reading of reaction sample” value ([1]; substrate 100, +Co A, 120 min) was 2.845. The “light reading of reaction sample” value ([1]; substrate 100, +DTT, 0 min) was 22.47, the “light reading of reaction sample” value ([1]; substrate 100, +DTT, 20 min) was 2.233 and the “light reading of reaction sample” value ([1]; substrate 100, +DTT, 40 min) was 1.292. For the same compound, the “light reading of reaction sample” value ([1]; substrate 100, +DTT, 60 min) was 1.164, the “light reading of reaction sample” value ([1]; substrate 100, +DTT, 90 min) was 1.093 and the “light reading of reaction sample” value ([1]; substrate 100, +DTT, 120 min) was 0.958. The “light reading of reaction sample” value ([1]; substrate 100, Alone, 0 min) was 20.46, the “light reading of reaction sample” value ([1]; substrate 100, Alone, 20 min) was 1.18 and the “light reading of reaction sample” value ([1]; substrate 100, Alone, 40 min) was 0.868. The “light reading of reaction sample” value ([1]; substrate 100, Alone, 60 min) was 0.788, the “light reading of reaction sample” value ([1]; substrate 100, Alone, 90 min) was 0.627 and the “light reading of reaction sample” value ([1]; substrate 100, Alone, 120 min) was 0.544. For the same compound, the “light value of diluted reaction sample in Steady Glo” value (from here on “light value”) ([2]; substrate 6.25, +Co A & DTT, sample taken 0 min) was 1836, the “light value” value ([2]; substrate 6.25, +Co A & DTT, sample taken 60 min) was 1625 and the “light value” value ([2]; substrate 6.25, +Co A & DTT, sample taken 120 min) was 1622. For the same compound, the “light value” value ([2]; substrate 6.25, +Co A, sample taken 0 min) was 1647, the “light value” value ([2]; substrate 6.25, +Co A, sample taken 60 min) was 976.8 and the “light value” value ([2]; substrate 6.25, +Co A, sample taken 120 min) was 921.4. The “light value” value ([2]; substrate 6.25, +DTT, sample taken 0 min) was 1631, the “light value” value ([2]; substrate 6.25, +DTT, sample taken 60 min) was 1544 and the “light value” value ([2]; substrate 6.25, +DTT, sample taken 120 min) was 1695. The “light value” value ([2]; substrate 6.25, Alone, sample taken 0 min) was 1402, the “light value” value ([2]; substrate 6.25, Alone, sample taken 60 min) was 1158 and the “light value” value ([2]; substrate 6.25, Alone, sample taken 120 min) was 1073. For the same compound, the “light value” value ([2]; substrate 25, +Co A & DTT, sample taken 0 min) was 529.6, the “light value” value ([2]; substrate 25, +Co A & DTT, sample taken 60 min) was 1268 and the “light value” value ([2]; substrate 25, +Co A & DTT, sample taken 120 min) was 1329. For the same compound, the “light value” value ([2]; substrate 25, +Co A, sample taken 0 min) was 1547, the “light value” value ([2]; substrate 25, +Co A, sample taken 60 min) was 777.5 and the “light value” value ([2]; substrate 25, +Co A, sample taken 120 min) was 588.7. For the same compound, the “light value” value ([2]; substrate 25, +DTT, sample taken 0 min) was 1116, the “light value” value ([2]; substrate 25, +DTT, sample taken 60 min) was 1372 and the “light value” value ([2]; substrate 25, +DTT, sample taken 120 min) was 1393. The “light value” value ([2]; substrate 25, Alone, sample taken 0 min) was 1345, the “light value” value ([2]; substrate 25, Alone, sample taken 60 min) was 973.4 and the “light value” value ([2]; substrate 25, Alone, sample taken 120 min) was 860.3. The “light value” value ([2]; substrate 100, +Co A & DTT, sample taken 0 min) was 1745, the “light value” value ([2]; substrate 100, +Co A & DTT, sample taken 60 min) was 1319 and the “light value” value ([2]; substrate 100, +Co A & DTT, sample taken 120 min) was 1343. The “light value” value ([2]; substrate 100, +Co A, sample taken 0 min) was 1127, the “light value” value ([2]; substrate 100, +Co A, sample taken 60 min) was 1055 and the “light value” value ([2]; substrate 100, +Co A, sample taken 120 min) was 770.5. The “light value” value ([2]; substrate 100, +DTT, sample taken 0 min) was 1168, the “light value” value ([2]; substrate 100, +DTT, sample taken 60 min) was 501.5 and the “light value” value ([2]; substrate 100, +DTT, sample taken 120 min) was 1478. The “light value” value ([2]; substrate 100, Alone, sample taken 0 min) was 1262, the “light value” value ([2]; substrate 100, Alone, sample taken 60 min) was 1203 and the “light value” value ([2]; substrate 100, Alone, sample taken 120 min) was 1273.
